Assays:
Solubility in water = format: physicochemical
Excerpt: La nitrofurantoïne ou N-(5-nitro-2-fur furylidène)-1-aminohydantoïne est un médicament, bien connu, utilisé notamment comme agent antiseptique des voies urinaires. […] Afin de pallier à cet inconvénient, différentes formes cristallines ont été développées avec peu de succès. Des sels de métaux alcalins de nitrofurantoine ont également été réalisés mais ceux-ci, bien que solubles, présentent l'inconvénient d'apporter avec eux, des ions alcalins qui sont souvent contre- indiqués, notamment lors des traitements au long cours chez les sujets soumis à un régime désodé.

[1] = 10% solution in water
Procedure: On refroidit à O°C une solution de 11,68 g de lysine base dans 190 ml d'eau. A cette solution limpide, on ajoute par petites portions et sous agitation 10,47 g de nitrofurantoïne. Quelques minutes après la fin de l'addition, la solution est filtrée, congelée et lyophilisée.

in vivo = details: po, dose létale pour 50% des animaux
Excerpt: La toxicité de la nitrofurantoïne est connue pour donner des résultats variables suivant les caractéristiques du produit utilisé, notamment la taille des cristaux.

[2] = water, 25°C; cited from earlier work
[3] = aqueous solution; cited from earlier work

## O=C1CN(N=Cc2ccc([N+](=O)[O-])o2)C(=O)N1 [Exemple 1]
Solubility in water; 20°C, read-out: solubilité dans l'eau à 20°C
  solubility: > 300 mg/mL
Solubility in water; qualitative
  solubilité dans l'eau (result in words): instantanément soluble dans l'eau
[1]
  pH d'une solution à 10% dans l'eau: 8,9 - 9,5

## O=C1CN(N=Cc2ccc([N+](=O)[O-])o2)C(=O)N1 [Exemple 2]
In vivo; mouse
  LD50: 960 mg/kg
In vivo; mouse, en nitrofurantoïne pure
  LD50: 530 mg/kg
In vivo; rat
  LD50: 1910 mg/kg
In vivo; rat, en nitrofurantoine pure
  LD50: 1050 mg/kg

## O=C1CN(/N=C/c2ccc([N+](=O)[O-])o2)C(=O)N1 [nitrofurantoïne, N-(5-nitro-2-furfurylidène)-1-aminohydantoïne]
[2]
  soluble dans l'eau: 19 mg/100 ml
[3]
  pKa en solution aqueuse: ~7,2

From patent EP0066934A1, “Nitrofurantoin salts, their preparation and their use” ("PHARLYSE", Société Anonyme, priority 1981, dated 1982)
